Data set [1] has as its target Angiotensin-converting enzyme (Homo sapiens) (UniProt P12821). Briefly: Inhibition of ACE at 10 uM.
In data set [2] the target is T1, Endothelin-converting enzyme 1 (Homo sapiens) (UniProt P42892).
T1 sequence (whole entry): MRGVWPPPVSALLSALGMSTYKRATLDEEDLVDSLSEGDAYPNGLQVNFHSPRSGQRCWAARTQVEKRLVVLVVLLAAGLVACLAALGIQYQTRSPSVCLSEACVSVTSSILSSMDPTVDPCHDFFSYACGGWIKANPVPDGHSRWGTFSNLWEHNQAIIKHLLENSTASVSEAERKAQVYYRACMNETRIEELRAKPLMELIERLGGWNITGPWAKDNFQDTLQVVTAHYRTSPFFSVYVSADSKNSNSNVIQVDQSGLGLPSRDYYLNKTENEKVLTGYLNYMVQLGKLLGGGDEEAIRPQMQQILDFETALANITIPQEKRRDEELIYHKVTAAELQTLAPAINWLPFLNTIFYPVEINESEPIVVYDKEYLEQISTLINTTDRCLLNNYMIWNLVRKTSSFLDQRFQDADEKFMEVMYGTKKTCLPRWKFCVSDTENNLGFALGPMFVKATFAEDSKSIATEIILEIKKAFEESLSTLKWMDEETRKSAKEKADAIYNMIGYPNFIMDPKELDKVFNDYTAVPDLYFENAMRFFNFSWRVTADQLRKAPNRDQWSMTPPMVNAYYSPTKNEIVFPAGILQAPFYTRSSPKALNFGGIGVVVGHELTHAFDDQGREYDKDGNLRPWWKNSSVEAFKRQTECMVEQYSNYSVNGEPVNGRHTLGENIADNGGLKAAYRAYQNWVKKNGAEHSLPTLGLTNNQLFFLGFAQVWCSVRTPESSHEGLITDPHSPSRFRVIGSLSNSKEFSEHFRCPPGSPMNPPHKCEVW
In words: Inhibition of ECE at 10 uM.

In data set [3] the target is Stromelysin-1 (Homo sapiens, UniProt P08254). Briefly: Inhibition of MMP3.
Sequence of Stromelysin-1 (P08254 whole entry): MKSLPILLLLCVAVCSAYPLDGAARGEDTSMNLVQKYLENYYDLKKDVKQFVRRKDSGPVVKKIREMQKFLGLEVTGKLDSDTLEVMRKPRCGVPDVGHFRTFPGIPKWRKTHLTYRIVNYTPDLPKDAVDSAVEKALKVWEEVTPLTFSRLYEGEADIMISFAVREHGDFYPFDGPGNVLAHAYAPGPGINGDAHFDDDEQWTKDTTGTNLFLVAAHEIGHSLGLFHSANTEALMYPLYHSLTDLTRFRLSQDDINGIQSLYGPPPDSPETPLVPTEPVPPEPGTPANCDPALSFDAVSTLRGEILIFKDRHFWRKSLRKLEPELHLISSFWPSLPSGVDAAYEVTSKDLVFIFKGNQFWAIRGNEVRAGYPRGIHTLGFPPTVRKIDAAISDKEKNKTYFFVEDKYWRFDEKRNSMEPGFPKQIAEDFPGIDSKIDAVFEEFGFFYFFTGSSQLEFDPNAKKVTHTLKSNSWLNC
For data set [4], the target named is Matrix metalloproteinase-14 (Homo sapiens, UniProt P50281). In words: Inhibition of MMP14.
A short description of data set [5]: Clearance in BALB/c mice at 10 mg/kg, iv. Format: ADME, organism-based. Details: dose 10 mg/kg, route intravenous. As to conditions: mouse, in vivo.
The nature of data set [6]: Half life in BALB/c mice at 10 mg/kg, iv. Format: ADME, organism-based. Also noted: dose 10 mg/kg, route intravenous. As to conditions: mouse, in vivo.
A short description of data set [7]: Bioavailability in BALB/c mice […], po. The format is ADME, organism-based. As to conditions: mouse, in vivo.
Data set [8] is described as follows: Bioavailability in Guinea pig at 1 mg/ml, po. Format: ADME, organism-based, Cavia porcellus. As to conditions: in vivo.
Data set [9] is described as follows: Half life in Dutch Belted rabbit at 2 mg/kg, iv. As to conditions: in vivo. Format: ADME, organism-based, Oryctolagus cuniculus. Also noted: dose 2 mg/kg, route intravenous.
Data set [10] in a line: Half life in New Zealand White rabbit at 5 mg/kg, iv. The format is ADME, organism-based, Oryctolagus cuniculus. Also noted: dose 5 mg/kg, route intravenous. As to conditions: in vivo.
The nature of data set [11]: Half life in Beagle dog at 1 mg/kg, iv. The format is ADME, organism-based, Canis lupus familiaris. Also noted: dose 1 mg/kg, route intravenous. As to conditions: in vivo.
Data set [12] is described as follows: Clearance in rhesus monkey at 1 mg/kg, iv. Format: ADME, organism-based, Macaca mulatta. Also noted: dose 1 mg/kg, route intravenous. As to conditions: in vivo.

Sequence of Angiotensin-converting enzyme (Homo sapiens) (P12821 whole entry): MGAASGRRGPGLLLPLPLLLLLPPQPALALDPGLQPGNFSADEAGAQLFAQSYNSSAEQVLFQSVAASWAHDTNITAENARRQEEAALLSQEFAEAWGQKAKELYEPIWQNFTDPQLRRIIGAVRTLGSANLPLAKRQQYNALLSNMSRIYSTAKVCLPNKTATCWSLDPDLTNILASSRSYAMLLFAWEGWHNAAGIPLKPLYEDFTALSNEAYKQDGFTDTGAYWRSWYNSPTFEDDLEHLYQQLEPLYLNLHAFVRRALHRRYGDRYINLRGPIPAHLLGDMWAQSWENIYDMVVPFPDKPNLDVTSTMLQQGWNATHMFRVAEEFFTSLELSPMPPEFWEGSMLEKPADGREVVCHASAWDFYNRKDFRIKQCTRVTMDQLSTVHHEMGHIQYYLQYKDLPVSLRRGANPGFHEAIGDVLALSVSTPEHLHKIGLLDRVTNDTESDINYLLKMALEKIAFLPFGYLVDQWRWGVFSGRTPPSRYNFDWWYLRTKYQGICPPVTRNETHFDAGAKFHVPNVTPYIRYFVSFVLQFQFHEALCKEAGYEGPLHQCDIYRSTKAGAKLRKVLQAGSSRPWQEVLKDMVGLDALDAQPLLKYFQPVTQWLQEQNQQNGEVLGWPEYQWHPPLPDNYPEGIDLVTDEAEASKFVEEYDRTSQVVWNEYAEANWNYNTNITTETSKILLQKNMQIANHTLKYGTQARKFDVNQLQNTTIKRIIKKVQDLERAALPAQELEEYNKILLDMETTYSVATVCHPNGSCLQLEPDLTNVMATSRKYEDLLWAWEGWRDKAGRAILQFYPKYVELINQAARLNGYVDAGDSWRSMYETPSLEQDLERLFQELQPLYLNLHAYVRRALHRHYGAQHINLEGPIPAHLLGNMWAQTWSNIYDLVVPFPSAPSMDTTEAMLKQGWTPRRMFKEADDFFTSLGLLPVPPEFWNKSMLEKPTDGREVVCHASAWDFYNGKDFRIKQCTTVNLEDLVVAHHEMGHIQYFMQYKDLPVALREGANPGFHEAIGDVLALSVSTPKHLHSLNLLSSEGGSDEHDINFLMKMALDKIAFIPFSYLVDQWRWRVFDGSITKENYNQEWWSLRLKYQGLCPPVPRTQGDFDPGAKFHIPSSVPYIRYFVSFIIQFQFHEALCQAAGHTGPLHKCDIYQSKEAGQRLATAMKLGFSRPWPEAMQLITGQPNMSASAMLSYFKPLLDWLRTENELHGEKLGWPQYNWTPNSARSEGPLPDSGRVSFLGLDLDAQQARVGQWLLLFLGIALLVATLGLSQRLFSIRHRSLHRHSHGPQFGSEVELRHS

One may read the inhibition as the drop in the measured response relative to a control, in per cent. In general, IC50 refers to the midpoint of a concentration-inhibition curve. What is called clearance is a measure of how efficiently the substance is removed, as volume per time. What is called half-life is the time in which the quantity being followed falls by half. In general, bioavailability refers to dose-corrected exposure relative to a reference, in per cent. As to `Cc1cc(S(=O)(=O)N[C@@H](C(=O)NO)C2CCOCC2)ccc1F`, the inhibition in data set [1] and in [2] was less than 10% each time. Further, the half-inhibitory concentration (IC50) in [3] worked out at 1.4 µM; in [4], 6.5 µM. In addition, the clearance is 72 mL/min/kg in data set [5] and 23 mL/min/kg in data set [12]. Further, the half-life in [6] was 0.4 h; in [9], 2 h; in data set [10], 2.5 h; in data set [11], 4.7 h. For the same compound, the bioavailability was 20% in data set [7] and 22% in data set [8].

The values are drawn from ChEMBL document CHEMBL1138106, “The discovery of a potent and selective lethal factor inhibitor for adjunct therapy of anthrax infection” (Bioorg Med Chem Lett, 2006).
